Experiments:
[1] = test system: C4-2 tumor; experiment: In vivo stability of PA signal after direct injection at the tumor site; design: species or system mouse; details: 250 μM, 50 μL, 0.625 μmol/kg, direct injection into tumor, 0-60 min
Description: Laser light was used to illuminate the tumor during data collection: 800 nm, 20 mJ for ICG and 725 nm, 20 mJ for MMn.
Laser wavelength: 800 nm, Laser fluence: 20 mJ/cm^2. Percentage of PA signal after 1 hour=46%
Laser wavelength: 725 nm, Laser fluence: 20 mJ/cm^2. Percentage of PA signal after 1 hour=91%
(§1) Male BALB/c nude mice (18±2 g, 4-6 weeks old) were purchased from a commercial source and used according to standard animal guidelines for the care and use of laboratory animals with appropriate ethical oversight board approval.
Human prostate cancer cell lines C4-2 were purchased from commercial sources and cultured in Dulbecco's Modified Eagle Medium (DMEM) (Life Technologies, NY, USA) supplemented with 10% fetal bovine serum (FBS; Cyclone, UT, USA). […]
(§2) An optical parametric oscillator (OPO) laser source (Innolas GmbH, Bonn, Germany) emitting 8 ns pulsed lasers was coupled to a multimode optical fiber with a 1500 μm core diameter for the photoacoustic signal excitation. […] This led to the vibration of the tissue, which generated ultrasonic waves that could be recorded by a commercial 128-element linear array transrectal ultrasound transducer. […]
To confirm the in vivo stability of MMn for PA imaging, MMn was injected directly at the tumor site and the PA signal was measured over time (0-60 mins) with concurrent US imaging. […]

[2] = test system: C4-2 tumor; experiment: In vivo PA imaging, prostate tumor mouse model, tail vein injection; details: 500 μM, 200 μL, 5 μmol/kg, after 24 h
Description: as §1
Human prostate cancer cell lines C4-2 were purchased from commercial sources and cultured in Dulbecco's Modified Eagle Medium (DMEM) (Life Technologies, NY, USA) supplemented with 10% fetal bovine serum (FBS; Cyclone, UT, USA). Cells were incubated at 37° C. in a humidified atmosphere containing 5% CO2. For C4-2 tumor inoculation, C4-2 cells (˜1×10^6) suspended in PBS were injected under the nude mice epidermis of the right flank. Animals were observed every day for any behavioral abnormalities. […]
as §2
To test further the PA imaging potential of MMn, in vivo experiments were performed using a prostate tumor mouse model as shown in FIG. 19. […] Normalized PA intensity values were then calculated. […]

[3] = Photostability under photoirradiation (UV-Vis absorption over time); format: physicochemical; details: fluence ~18 mJ/cm^2
Text: Measurements were taken at 5-minute intervals. Fluence: 20 mJ/cm^2. Laser wavelength: 780 nm.
Measurements were taken at 5-minute intervals. Fluence: 20 mJ/cm^2. Laser wavelength: 725 nm.
Measurements were taken at 5-minute intervals. Fluence: 20 mJ/cm^2. Laser wavelength: 740 nm.
Photostability is also relevant factor to consider for a potential PA contrast agent for clinical applications.

- change in absorption at 780 nm over photoirradiation ([3]; 40 μM, 30 minutes): 90%
- photostability upon photoirradiation ([3]; ICG: 100 μM, 20 minutes, 780 nm): poor photostability
SMILES: CC1(C)C(/C=C/C=C/C=C/C=C2\N(CCCCS(=O)(=O)O)c3ccc4ccccc4c3C2(C)C)=[N+](CCCCS(=O)(=O)[O-])c2ccc3ccccc3c21 [ICG, Indocyanine green]
- PA signal remaining at tumor site after 1 hour [1]: 46%
- increase in normalized PA signal intensity at the tumor site relative to pre-injection [2]: No significant increase

Source: patent US20250034158A1, “TEXAPHYRIN DERIVATIVES FOR MANGANESE CHEMOTHERAPY, PHOTOACOUSTIC IMAGING, AND PHOTOTHERMAL THERAPY” (BOARD OF REGENTS, THE UNIVERSITY OF TEXAS SYSTEM, priority 2020, published 2025)
